Test: DPPH radical scavenging activity
Conditions: 0.1 mM DPPH, 30 min in the dark at room temperature, absorbance 517 nm; mean ± SD (n = 3)
Method: The reaction mixture was left in the dark at room temperature for 30 min. […] The percentage of scavenging activity against the DPPH radical was calculated by the following equation:Radical scavenging activity (%) = (Abs control − Abs sample)/Abs control × 100% where Abs control is the absorbance of the DPPH radical in methanol; Abs sample is the absorbance of the DPPH radical solution mixed with the sample extract. […] All determinations were performed in triplicate.

Row | DPPH Radical Scavenging Activity, IC50 Value | Compound
1 | 31.6 ± 0.9 µg/mL | O=c1cc(-c2ccc(O)cc2)oc2cc(O)cc(O)c12 [Apigenin, apigenin]
2 | 25.3 ± 0.3 µg/mL | O=C(O)/C=C/c1ccc(O)c(O)c1 [Caffeic acid, caffeic acid]
3 | 45.2 ± 0.3 µg/mL | COc1cc(/C=C/C(=O)O)ccc1O [Ferulic acid, ferulic acid]
4 | 21.1 ± 0.3 µg/mL | O=C(O)c1cc(O)c(O)c(O)c1 [Gallic acid, gallic acid]
5 | >500 µg/mL | Cc1ncc(C[n+]2csc(CCO)c2C)c(N)n1 [Thiamine, thiamine]
